Results on eight molecules are retold here after ChEMBL document CHEMBL5465560, “Selectivity Literature for EUbOPEN Chemogenomic Library” (2024).

Assay [1] addresses T1, Serine/threonine-protein kinase Nek9 (Homo sapiens) (UniProt Q8TD19).
T1 sequence (whole entry): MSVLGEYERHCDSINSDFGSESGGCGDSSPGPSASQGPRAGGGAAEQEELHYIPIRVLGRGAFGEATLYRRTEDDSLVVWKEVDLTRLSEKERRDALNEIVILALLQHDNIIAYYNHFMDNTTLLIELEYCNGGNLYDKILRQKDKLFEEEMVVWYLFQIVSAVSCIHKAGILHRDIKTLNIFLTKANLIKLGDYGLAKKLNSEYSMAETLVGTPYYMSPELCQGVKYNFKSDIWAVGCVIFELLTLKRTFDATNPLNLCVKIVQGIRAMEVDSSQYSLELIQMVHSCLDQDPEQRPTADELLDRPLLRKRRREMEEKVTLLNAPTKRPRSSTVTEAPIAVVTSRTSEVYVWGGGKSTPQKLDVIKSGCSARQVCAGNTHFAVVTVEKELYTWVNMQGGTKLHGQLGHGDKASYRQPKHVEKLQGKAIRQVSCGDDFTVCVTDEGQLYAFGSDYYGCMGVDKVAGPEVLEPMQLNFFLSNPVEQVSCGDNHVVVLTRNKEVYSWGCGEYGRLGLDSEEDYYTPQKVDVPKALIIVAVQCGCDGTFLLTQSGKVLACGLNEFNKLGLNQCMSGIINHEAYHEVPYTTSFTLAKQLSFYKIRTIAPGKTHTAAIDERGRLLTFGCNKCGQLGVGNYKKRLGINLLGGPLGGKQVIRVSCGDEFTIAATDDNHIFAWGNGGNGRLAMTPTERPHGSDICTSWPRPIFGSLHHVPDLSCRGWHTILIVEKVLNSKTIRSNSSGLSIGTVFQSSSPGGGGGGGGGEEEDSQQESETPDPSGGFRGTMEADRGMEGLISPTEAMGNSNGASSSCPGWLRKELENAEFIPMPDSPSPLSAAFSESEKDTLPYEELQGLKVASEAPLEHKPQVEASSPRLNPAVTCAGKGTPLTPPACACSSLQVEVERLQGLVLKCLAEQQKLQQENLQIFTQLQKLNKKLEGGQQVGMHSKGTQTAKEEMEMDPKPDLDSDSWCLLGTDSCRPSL
As to the kind of experiment: Selectivity interaction (Kinase panel (Z-LYTE Assay)) EUB0001632a NEK9. Conditions: at 10 µM.

The target of assay [2] is Protein arginine N-methyltransferase 5 (Homo sapiens, UniProt O14744). As to the kind of experiment: Selectivity interaction (Methyltransferase screen (Scintillation proximity assays)) EUB0000255b PRMT5. For orientation: Scintillation proximity formats need no separation of bound from free tracer.
Protein arginine N-methyltransferase 5, sequence (O14744 whole entry, canonical isoform): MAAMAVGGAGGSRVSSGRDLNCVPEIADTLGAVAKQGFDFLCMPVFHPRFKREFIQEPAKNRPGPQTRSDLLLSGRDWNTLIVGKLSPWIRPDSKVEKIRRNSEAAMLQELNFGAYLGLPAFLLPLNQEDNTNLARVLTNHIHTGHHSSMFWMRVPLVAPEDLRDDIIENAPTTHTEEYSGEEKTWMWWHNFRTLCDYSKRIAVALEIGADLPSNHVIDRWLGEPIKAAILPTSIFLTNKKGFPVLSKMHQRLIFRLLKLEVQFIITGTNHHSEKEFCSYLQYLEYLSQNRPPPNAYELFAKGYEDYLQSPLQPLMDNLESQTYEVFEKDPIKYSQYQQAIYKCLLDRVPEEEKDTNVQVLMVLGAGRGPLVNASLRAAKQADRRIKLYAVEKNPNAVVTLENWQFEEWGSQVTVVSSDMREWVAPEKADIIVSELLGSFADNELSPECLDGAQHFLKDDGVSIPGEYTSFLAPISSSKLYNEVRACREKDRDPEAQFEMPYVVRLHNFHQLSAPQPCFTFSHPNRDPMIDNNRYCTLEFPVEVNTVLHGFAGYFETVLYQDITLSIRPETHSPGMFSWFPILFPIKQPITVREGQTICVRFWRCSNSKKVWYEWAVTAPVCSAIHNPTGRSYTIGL
The subject of assay [3] is Phosphatidylinositol 4,5-bisphosphate 3-kinase catalytic subunit alpha isoform (Homo sapiens), P42336 [E542K]. Conditions: at 10 µM.
Assay [4] deals with Wee1-like protein kinase (Homo sapiens) (UniProt P30291). As to the kind of experiment: Selectivity interaction (KinomeScan (DiscoverX)) EUB0000695a WEE1. Conditions: at 100 nM.
Wee1-like protein kinase (Homo sapiens), sequence (P30291 whole entry, looked up): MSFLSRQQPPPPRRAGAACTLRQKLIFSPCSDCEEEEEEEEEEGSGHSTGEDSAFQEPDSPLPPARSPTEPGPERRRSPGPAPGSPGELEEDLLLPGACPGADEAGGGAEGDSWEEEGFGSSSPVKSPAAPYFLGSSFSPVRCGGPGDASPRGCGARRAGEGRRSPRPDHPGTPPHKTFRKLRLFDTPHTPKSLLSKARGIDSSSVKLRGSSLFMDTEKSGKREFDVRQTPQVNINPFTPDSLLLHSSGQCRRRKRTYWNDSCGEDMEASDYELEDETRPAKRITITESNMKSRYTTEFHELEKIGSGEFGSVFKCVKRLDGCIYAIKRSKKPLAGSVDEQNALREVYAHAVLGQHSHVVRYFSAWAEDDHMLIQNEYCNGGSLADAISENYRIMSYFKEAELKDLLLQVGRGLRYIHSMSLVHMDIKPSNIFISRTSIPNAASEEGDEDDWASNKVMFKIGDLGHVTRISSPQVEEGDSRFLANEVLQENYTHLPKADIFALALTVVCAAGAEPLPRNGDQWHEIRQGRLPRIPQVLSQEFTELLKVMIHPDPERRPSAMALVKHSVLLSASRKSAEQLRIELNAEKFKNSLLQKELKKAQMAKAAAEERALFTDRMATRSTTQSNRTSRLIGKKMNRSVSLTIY
Assay [5] deals with G protein-coupled receptor kinase 4 (Homo sapiens) (UniProt P32298). As to the kind of experiment: Selectivity interaction (KinomeScan (DiscoverX)) EUB0000666a GRK4. Conditions: at 10 µM.
G protein-coupled receptor kinase 4 (Homo sapiens), sequence (P32298 whole entry, looked up): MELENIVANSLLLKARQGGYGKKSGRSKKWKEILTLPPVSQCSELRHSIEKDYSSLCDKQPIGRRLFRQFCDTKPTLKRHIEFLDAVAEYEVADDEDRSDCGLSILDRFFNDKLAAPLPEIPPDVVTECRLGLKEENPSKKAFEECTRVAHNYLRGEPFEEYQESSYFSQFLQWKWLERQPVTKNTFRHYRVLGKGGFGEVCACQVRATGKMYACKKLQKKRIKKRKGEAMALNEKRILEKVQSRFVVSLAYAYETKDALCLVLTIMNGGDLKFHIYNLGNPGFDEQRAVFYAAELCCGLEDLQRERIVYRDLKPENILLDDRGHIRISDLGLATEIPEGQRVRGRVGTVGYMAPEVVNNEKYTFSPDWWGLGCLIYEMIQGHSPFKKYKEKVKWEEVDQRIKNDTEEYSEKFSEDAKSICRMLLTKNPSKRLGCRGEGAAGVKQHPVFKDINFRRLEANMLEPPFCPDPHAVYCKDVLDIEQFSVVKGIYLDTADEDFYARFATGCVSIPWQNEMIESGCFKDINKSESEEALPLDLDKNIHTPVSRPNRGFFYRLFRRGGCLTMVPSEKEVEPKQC
In assay [6] the target is T2, Cyclin-dependent kinase 11A (Homo sapiens) (UniProt Q9UQ88).
T2 sequence (whole entry): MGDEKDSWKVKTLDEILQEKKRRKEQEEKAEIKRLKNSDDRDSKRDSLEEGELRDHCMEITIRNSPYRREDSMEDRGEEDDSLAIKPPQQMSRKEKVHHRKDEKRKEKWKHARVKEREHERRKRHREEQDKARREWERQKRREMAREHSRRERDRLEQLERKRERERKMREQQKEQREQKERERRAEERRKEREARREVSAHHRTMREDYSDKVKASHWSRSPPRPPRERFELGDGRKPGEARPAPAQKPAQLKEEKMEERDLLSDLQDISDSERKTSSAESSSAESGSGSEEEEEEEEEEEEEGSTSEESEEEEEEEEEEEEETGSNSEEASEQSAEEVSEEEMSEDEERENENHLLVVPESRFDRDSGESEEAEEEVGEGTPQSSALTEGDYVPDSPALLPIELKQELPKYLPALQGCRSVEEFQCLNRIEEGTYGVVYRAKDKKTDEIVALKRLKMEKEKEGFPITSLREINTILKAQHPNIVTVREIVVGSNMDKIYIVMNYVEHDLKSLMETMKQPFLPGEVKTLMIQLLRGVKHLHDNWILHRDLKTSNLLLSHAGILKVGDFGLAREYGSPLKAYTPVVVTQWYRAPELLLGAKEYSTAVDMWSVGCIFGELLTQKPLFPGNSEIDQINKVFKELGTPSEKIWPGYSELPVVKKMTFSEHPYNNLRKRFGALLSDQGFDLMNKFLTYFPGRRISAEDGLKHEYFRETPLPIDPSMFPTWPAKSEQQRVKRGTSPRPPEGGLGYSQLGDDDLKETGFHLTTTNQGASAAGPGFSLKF
As to the kind of experiment: Selectivity interaction (ActivX KiNativ screen (kinase selectivity in THP-1 cell lysates)) EUB0000639a CDK11A. The assay is classed as subcellular. Conditions: lysate, at 0.04 µM.

Assay [7] addresses Protein kinase C beta type (Homo sapiens, UniProt P05771). As to the kind of experiment: Selectivity interaction (Upstate Kinase Profiler service (Millipore)) EUB0000056c PRKCB. Conditions: at 1 µM.
Assay [8] deals with Tyrosine-protein kinase Fyn (Homo sapiens) (UniProt P06241). As to the kind of experiment: Selectivity interaction (KinomeScan (DiscoverX)) EUB0000229b FYN. Conditions: at 10 µM.
Tyrosine-protein kinase Fyn (Homo sapiens), sequence (P06241 2-537 limits assumed): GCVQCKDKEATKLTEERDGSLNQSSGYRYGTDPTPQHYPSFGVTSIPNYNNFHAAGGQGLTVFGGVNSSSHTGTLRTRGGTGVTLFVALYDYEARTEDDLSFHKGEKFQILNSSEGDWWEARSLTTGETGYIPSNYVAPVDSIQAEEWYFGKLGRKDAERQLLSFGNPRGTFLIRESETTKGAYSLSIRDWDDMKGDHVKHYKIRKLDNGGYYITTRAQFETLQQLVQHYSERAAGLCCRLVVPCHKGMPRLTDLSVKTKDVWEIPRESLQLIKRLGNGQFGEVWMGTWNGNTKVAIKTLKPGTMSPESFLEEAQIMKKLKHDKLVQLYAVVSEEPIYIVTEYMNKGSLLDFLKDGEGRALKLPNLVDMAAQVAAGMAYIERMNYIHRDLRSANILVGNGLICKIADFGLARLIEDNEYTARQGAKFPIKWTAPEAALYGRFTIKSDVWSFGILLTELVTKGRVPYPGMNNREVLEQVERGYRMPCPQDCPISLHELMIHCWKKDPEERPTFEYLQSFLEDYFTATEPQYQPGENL

Phosphatidylinositol 4,5-bisphosphate 3-kinase catalytic subunit alpha isoform (Homo sapiens), P42336 [E542K], sequence (P42336 whole entry E542K, canonical isoform): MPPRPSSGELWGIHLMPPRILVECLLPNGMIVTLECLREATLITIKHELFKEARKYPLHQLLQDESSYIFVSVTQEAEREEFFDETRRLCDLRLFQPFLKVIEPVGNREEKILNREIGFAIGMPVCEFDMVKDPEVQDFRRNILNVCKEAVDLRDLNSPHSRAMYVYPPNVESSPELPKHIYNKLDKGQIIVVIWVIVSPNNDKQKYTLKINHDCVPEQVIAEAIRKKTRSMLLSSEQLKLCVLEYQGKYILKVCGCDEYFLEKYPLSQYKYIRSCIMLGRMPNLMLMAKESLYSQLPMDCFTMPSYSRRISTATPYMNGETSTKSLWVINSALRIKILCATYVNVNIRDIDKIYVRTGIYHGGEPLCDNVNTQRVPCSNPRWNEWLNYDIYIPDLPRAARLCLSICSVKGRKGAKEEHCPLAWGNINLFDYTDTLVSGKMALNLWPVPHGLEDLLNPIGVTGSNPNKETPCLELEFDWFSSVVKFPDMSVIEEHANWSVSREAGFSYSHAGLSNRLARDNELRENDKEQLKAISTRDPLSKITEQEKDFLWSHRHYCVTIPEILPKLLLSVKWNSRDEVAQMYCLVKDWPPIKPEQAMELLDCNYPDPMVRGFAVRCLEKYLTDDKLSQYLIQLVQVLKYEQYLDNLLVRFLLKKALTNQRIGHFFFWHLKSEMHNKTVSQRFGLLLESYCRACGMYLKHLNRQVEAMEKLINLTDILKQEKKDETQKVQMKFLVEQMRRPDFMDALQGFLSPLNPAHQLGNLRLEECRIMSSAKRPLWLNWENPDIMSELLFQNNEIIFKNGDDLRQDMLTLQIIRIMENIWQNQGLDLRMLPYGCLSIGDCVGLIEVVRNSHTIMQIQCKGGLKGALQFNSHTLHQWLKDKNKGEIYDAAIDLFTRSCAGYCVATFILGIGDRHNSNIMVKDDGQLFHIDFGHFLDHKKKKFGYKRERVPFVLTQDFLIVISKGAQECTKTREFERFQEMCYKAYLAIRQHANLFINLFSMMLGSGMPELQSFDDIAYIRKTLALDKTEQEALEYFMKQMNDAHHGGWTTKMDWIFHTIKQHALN
Protein kinase C beta type, sequence (P05771 2-671 limits assumed): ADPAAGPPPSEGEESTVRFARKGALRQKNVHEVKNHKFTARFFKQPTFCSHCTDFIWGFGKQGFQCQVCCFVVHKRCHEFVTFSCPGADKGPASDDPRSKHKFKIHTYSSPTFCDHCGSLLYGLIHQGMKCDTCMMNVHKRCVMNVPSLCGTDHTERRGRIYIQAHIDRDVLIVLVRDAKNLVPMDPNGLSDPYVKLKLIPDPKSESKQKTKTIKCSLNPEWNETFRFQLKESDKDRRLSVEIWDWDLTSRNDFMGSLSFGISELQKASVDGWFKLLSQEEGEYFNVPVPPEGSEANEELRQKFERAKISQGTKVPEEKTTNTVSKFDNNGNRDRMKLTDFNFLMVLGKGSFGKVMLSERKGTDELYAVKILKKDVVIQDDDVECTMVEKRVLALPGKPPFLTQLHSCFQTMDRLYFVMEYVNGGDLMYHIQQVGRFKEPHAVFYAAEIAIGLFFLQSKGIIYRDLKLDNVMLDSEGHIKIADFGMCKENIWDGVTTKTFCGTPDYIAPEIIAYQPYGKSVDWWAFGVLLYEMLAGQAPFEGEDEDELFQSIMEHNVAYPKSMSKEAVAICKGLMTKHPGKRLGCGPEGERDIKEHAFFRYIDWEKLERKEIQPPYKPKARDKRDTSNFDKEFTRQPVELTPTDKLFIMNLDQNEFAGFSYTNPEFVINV

`Cn1cc(-n2cnc3c(NCc4nc5cc(Cl)c(Cl)cc5[nH]4)nc(N4CCOCC4)nc32)cn1`: in assay [1], the % of control was -0.159%.

As for `COCCN1CCC(c2cc(CN(C)C(=O)c3cccc(Oc4ccccc4)c3)ccn2)CC1`, the results for the % activity in assay [2] (at 1 µM) and in assay [2] (at 10 µM) were above 95% and above 90%, respectively.

Regarding `COCC(=O)NC/C=C/c1ccc2ncnc(Nc3ccc(Oc4ccc(C)nc4)c(C)c3)c2c1` [CP-724714], in assay [3], the % of control was found to be 100%.

On to `Cc1cc(F)c(C(=O)Nc2cccc(-c3nncn3C(C)C)n2)cc1-n1cnc(C2CC2)c1`, for which the % of control in assay [4] came out at 100%.

With `O=C(NOC[C@H](O)CO)c1ccc(F)c(F)c1Nc1ccc(I)cc1F`, the % of control in assay [5] turned out to be 100%.

With `CC[C@@H]1[C@H](F)C(=O)N[C@@H]1COc1nccc2cc(C(N)=O)c(OC)cc12` [ZIMLOVISERTIB], the % of inhibition in assay [6] is 6.9%.

In assay [7], `Cc1ccc(-c2ccc3c(ccc4sc5c(c43)NC[C@@H](C)NC5=O)n2)cn1` had a % of inhibition of 8%.

For the molecule `COc1cc(N(C)c2ccnc3ccc(C(F)(F)F)cc23)cc(OC)c1OC`, in assay [8], the % binding worked out at 100%.
